Experimental findings from ChEMBL document CHEMBL1151574, “Convergent syntheses and cytostatic properties of 2-chloro-2-deoxy-2-fluoroadenosine and its N7-isomer” (1995) are described below.

The source made the active and inactive calls. No cut-off for these calls is given here.

Assay [1] deals with PHA-Ly. The assay is described as follows: In vitro toxicity against phytohemagglutininin-stimulated peripheral blood lymphocytes (PHA-Ly) at a concentration of 1.0 ug/ml. The class given is functional, Homo sapiens.
The subject of assay [2] is MOLT-3. The assay is described as follows: In vitro toxicity against acute T cell leukemia (MOLT-3) at a concentration of 1.0 ug/ml. The class given is functional, Homo sapiens.
For assay [3], the system named is U-937. The assay is described as follows: In vitro toxicity against histocytic lymphoma (U-937) at a concentration of 10 ug/ml. Format: functional, Homo sapiens.
For assay [4], the system named is PHA-Ly. The assay is described as follows: In vitro toxicity against phytohemagglutininin-stimulated peripheral blood lymphocytes (PHA-Ly) at a concentration of 10 ug/ml. The class given is functional, Homo sapiens.
The test system of assay [5] is Raji. The assay is described as follows: In vitro toxicity against Burkitt's lymphoma (B-cell) (Raji) at a concentration of 10 ug/ml. The class given is functional, Homo sapiens.
Assay [6] has as its system U-937. The assay is described as follows: In vitro toxicity against histocytic lymphoma (U-937) at a concentration of 1.0 ug/ml. Format: functional, Homo sapiens.
Assay [7] has as its system IM-9. The assay is described as follows: In vitro toxicity against myeloma cell line (IM-9) at a concentration of 0.1 ug/ml. Format: functional, Homo sapiens.
Assay [8] concerns MOLT-3. The assay is described as follows: In vitro toxicity against acute T cell leukemia (MOLT-3) at a concentration of 10 ug/ml. The class given is functional, Homo sapiens.
In assay [9] the test system is Raji. The assay is described as follows: In vitro toxicity against Burkitt's lymphoma (B-cell) (Raji) at a concentration of 0.1 ug/ml. Format: functional, Homo sapiens.
Assay [10] relates to Raji. The assay is described as follows: In vitro toxicity against Burkitt's lymphoma (B-cell) (Raji) at a concentration of 1.0 ug/ml. Format: functional, Homo sapiens.
Assay [11] relates to IM-9. The assay is described as follows: In vitro toxicity against myeloma cell line (IM-9) at a concentration of 1.0 ug/ml. Format: functional, Homo sapiens.
Assay [12] relates to Raji. The assay is described as follows: In vitro toxicity against Burkitt's lymphoma (B-cell) (Raji) at a concentration of 0.01 ug/ml. Format: functional, Homo sapiens.
The subject of assay [13] is IM-9. The assay is described as follows: In vitro toxicity against myeloma cell line (IM-9) at a concentration of 10 ug/ml. The class given is functional, Homo sapiens.
Assay [14] concerns PHA-Ly. The assay is described as follows: In vitro toxicity against phytohemagglutininin-stimulated peripheral blood lymphocytes (PHA-Ly) at a concentration of 0.1 ug/ml. Format: functional, Homo sapiens.
In assay [15] the test system is U-937. The assay is described as follows: In vitro toxicity against histocytic lymphoma (U-937) at a concentration of 0.01 ug/ml. Format: functional, Homo sapiens.
Assay [16] has as its system MOLT-3. The assay is described as follows: In vitro toxicity against acute T cell leukemia (MOLT-3) at a concentration of 0.1 ug/ml. Format: functional, Homo sapiens.
Assay [17] deals with MOLT-3. The assay is described as follows: In vitro toxicity against acute T cell leukemia (MOLT-3) at a concentration of 0.01 ug/ml. The class given is functional, Homo sapiens.
The test system of assay [18] is U-937. The assay is described as follows: In vitro toxicity against histocytic lymphoma (U-937) at a concentration of 0.1 ug/ml. The class given is functional, Homo sapiens.
In assay [19] the test system is IM-9. The assay is described as follows: In vitro toxicity against myeloma cell line (IM-9) at a concentration of 0.01 ug/ml. Format: functional, Homo sapiens.
Assay [20] has as its system PHA-Ly. The assay is described as follows: In vitro toxicity against phytohemagglutininin-stimulated peripheral blood lymphocytes (PHA-Ly) at a concentration of 0.01 ug/ml. The class given is functional, Homo sapiens.
The test system of assay [21] is IM-9. The assay is described as follows: In vitro toxicity against myeloma cell line (IM-9) at a concentration of 10 ug/ml; No significant toxicity. Format: functional, cell-based. The note with it: Homo sapiens.
In assay [22] the test system is U-937. The assay is described as follows: In vitro toxicity against histocytic lymphoma (U-937) at a concentration of 10 ug/ml; No significant toxicity. Format: functional, cell-based. The settings on record: Homo sapiens.
Assay [23] deals with PHA-Ly. The assay is described as follows: In vitro toxicity against phytohemagglutininin-stimulated peripheral blood lymphocytes (PHA-Ly) at a concentration of 10 ug/ml; No significant toxicity. The class given is functional, cell-based. The settings on record: Homo sapiens.
Assay [24] concerns MOLT-3. The assay is described as follows: In vitro toxicity against acute T cell leukemia (MOLT-3) at a concentration of 10 ug/ml; No significant toxicity. The class given is functional, cell-based. The note with it: Homo sapiens.
In assay [25] the test system is Raji. The assay is described as follows: In vitro toxicity against Burkitt's lymphoma (B-cell) (Raji) at a concentration of 10 ug/ml; No significant toxicity. Format: functional, cell-based. The note with it: Homo sapiens.

As to `Nc1nc(Cl)nc2c1ncn2[C@@H]1O[C@H](CO)C(O)[C@H]1F` (single isomer, unassigned), the Toxicity turned out to be 17% in the assay on PHA-Ly [1]; 3.3% with MOLT-3 [2]; 1.8% in the assay with U-937 [3]; 4% with PHA-Ly [4]; 2.5% in the assay on Raji [5]; 4.9% in the assay on U-937 [6]. For the same compound, the Toxicity is recorded as 110% in the assay with IM-9 [7]; 2.6% in the assay on MOLT-3 [8]; 68% with Raji [9]; 9.1% in the assay with Raji [10]; 19% in the assay on IM-9 [11]; 103% with Raji [12]. The Toxicity amounted to 5.7% in the assay with IM-9 [13]; 90% in the assay on PHA-Ly [14]; 99% in the assay on U-937 [15]; 79% with MOLT-3 [16]; 106% in the assay on MOLT-3 [17]; 70% with U-937 [18]. In addition, the Toxicity worked out at 108% with IM-9 [19] and 98% with PHA-Ly [20].

For the compound `Nc1nc(Cl)nc2ncn([C@@H]3O[C@H](CO)C(O)[C@H]3F)c12` (single isomer, unassigned), the Toxicity entry in the assay on IM-9 [21], in the assay with U-937 [22], in the assay with PHA-Ly [23], in the assay with MOLT-3 [24] and with Raji [25] was “inactive” throughout.
